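Assay format: 96-well plates, 48-hour exposure. TGI denotes the concentration required for complete inhibition of growth.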
Tests used:
Assay in all cases: growth of human tumour cells (NCI), 48 h
[1] = tested on: 786-0 renal
[2] = tested on: A549 NSCLC
[3] = tested on: BT-549 breast
[4] = tested on: CAKI-1 renal
[5] = tested on: HCC-2998 colon
[6] = tested on: HCT-116 colon
[7] = tested on: HCT-15 colon
[8] = tested on: HOP-62 NSCLC
[9] = tested on: M14 melanoma
[10] = tested on: MDA-MB-231 breast
[11] = tested on: MDA-N
[12] = tested on: NCI-H23 lung
[13] = tested on: NCI-H522 lung
[14] = tested on: NCI/ADR-RES ovarian
[15] = tested on: OVCAR-5 ovarian
[16] = tested on: RXF 393 renal
[17] = tested on: SK-MEL-2 melanoma
[18] = tested on: SK-OV-3 ovarian
[19] = tested on: SR leukemia

SMILES	TGI [1] [µM]	TGI [2] [µM]	TGI [3] [µM]	TGI [4] [µM]	TGI [5] [µM]	TGI [6] [µM]	TGI [7] [µM]	TGI [8] [µM]	TGI [9] [µM]	TGI [10] [µM]	TGI [11] [µM]	TGI [12] [µM]	TGI [13] [µM]	TGI [14] [µM]	TGI [15] [µM]	TGI [16] [µM]	TGI [17] [µM]	TGI [18] [µM]	TGI [19] [µM]
CC(=O)OCC1OC(OC(C)=O)C(Nc2ncc(-c3ccc(C)cc3)s2)C(OC(C)=O)C1OC(C)=O (stereo unspecified)	40.1	47.9	36.7	31.2	57.7	32.1	60	42.2	33.4	49.8	35.3	31.9	34.3	76.8	> 100	29.6	59.7	> 100	> 100
Cc1cccc2c1c(=O)c1c(O)cc3c(c1n2C)C=CC(C)(C)O3	> 100	> 100	> 100	> 100	> 100	> 100	> 100	> 100	> 100	> 100	> 100	> 100	> 100	> 100	> 100	> 100	> 100	> 100	> 100
COc1cc2c(cc1O)Cc1c-2[n+](C)cc2cc(OC)c(OC)cc12	> 44.7	> 100	> 57.9	> 100	> 100	> 100	> 100	> 100	> 100	> 100	> 100	> 100	> 100	> 100	> 100	> 100	> 100	> 100	> 22.1
COc1ccc(-n2c(Cn3nnc(-c4cccnc4)n3)nn(C3OC(COC(=O)c4ccccc4)C(OC(=O)c4ccccc4)C3OC(=O)c3ccccc3)c2=S)cc1 (stereo unspecified)	> 100	> 100	> 100	> 100	> 100	> 100	> 100	> 100	> 100	> 100	> 100	> 100	> 100	> 100	> 100	> 100	> 100	> 100	> 100
c1ccc(-c2cc(-c3ccncc3)cc(-c3ccncc3)n2)cc1	> 100	> 100	> 100	> 100	> 100	> 100	> 100	> 100	> 100	> 100	> 100	> 100	> 100	> 100	> 100	> 100	> 100	> 100	> 100
CN1CC=C(c2cccn2C)CC1	> 100	> 100	> 100	> 100	> 100	> 100	> 100	> 100	> 100	> 100	> 100	> 100	> 100	> 100	> 100	> 100	> 100	> 100	> 100
Cn1nc(-c2ccccc2)c2c(-c3ccccc3)c3cc(Cl)ccc3nc21	> 100	> 100	> 100	> 100	> 100	> 100	> 22.9	> 100	> 100	> 100	> 100	> 100	> 100	> 25.7	> 100	> 100	> 100	> 100	> 100
COC(=O)c1ccc(C)cc1C1CN=NC12Cc1cc(C)ccc1C2=O (stereo unspecified)	> 92.6	> 100	> 85.7	97.3	> 71.4	28.6	> 100	> 100	36.9	64.9	6.11	66.5	26.8	47.5	> 100	> 71.6	45.8	> 100	32.2
NC(Cc1ccccc1)c1nn[nH]n1 (stereo unspecified)	> 100	> 100	> 100	> 100		> 100	> 100	> 100	> 100	> 100	> 100	> 100	> 100	> 100	> 100	> 100	> 100	> 100	> 100
CCOC(=O)C1=CNC(C(=O)OCC)C1c1cccn1-c1ccccc1 (stereo unspecified)	> 100	> 100	> 100	> 100	> 100	58.6	> 100	> 100	> 100	40.1	57.4	> 100	59.1	91.4	> 100	69	37.2		55.3
O=C1CCN2C(=N1)Sc1ccccc12	> 100	> 100	> 100	> 100		> 100	> 100	> 100	> 100	> 100	> 100	> 100	> 100	> 100	> 100	> 100	> 100	> 100	> 100

Reference: PubChem BioAssay (NCI)
